These results are taken from PMC6571673, “Cytostatic and Cytotoxic Natural Products against Cancer Cell Models” (Molecules, 2019).

Bounds are passed on as bounds.

The subject of data set [1] is human cancer cell lines such as oral carcinoma, melanoma, acute myelogenous leukemia, and cervical cancer. The arrangement: method as in PMID 15132542, PMID 22128783, PMID 24086701, PMID 19190247. The note with it: several human cancer cell lines; cited from earlier work.
For data set [2], the system named is SUP-B15. Put plainly: Cell cycle analysis (PI DNA content, flow cytometry). The format is cell-based, human. The note with it: SUP-B15, 24 h; silvestrol 5 µM, 8 5 µM, 9 10 µM, 10 5 µM, 12 10 µM, 13 10 µM. How it is done: (§1) The samples were probed with AnnexinV-FITC (Roche/Boehringer Mannheim, Indianapolis, IN, USA) according to the manufacturer’s instructions. KOPN-8 or SUB-P15 cells were plated (1.00 × 10^6 cells/plate) and incubated for 12 h and incubated at 37 °C. Then, cells were treated with compounds or controls for 24 h. Cells were stained with AnnexinV-FITC, PI and the staining profiles were determined with FACScan and Cell-Quest software. For cellular DNA content, the same cell treatment as above was performed. Then, cells were fixed in cold 75% ethanol, treated with RNase and then stained with PI solution (50 µg/mL). Cell cycle distribution was analyzed with the FACSCalibur analyzer (BD Biosciences, Franklin Lakes, NJ, USA) and Cell-Quest software. The percentage of DNA content at different phases of the cell cycle was analyzed with ModFit-software (version 5.0, Verity Software House, Topsham, ME, USA).
For orientation: In flow cytometry, cells or beads pass a laser one at a time.

Data set [3] relates to KOPN-8. Described as above. Format: cell-based, human. The note with it: KOPN-8, 24 h; silvestrol 5 µM, 8 5 µM, 9 10 µM, 10 5 µM, 12 10 µM, 13 10 µM. On the procedure: as §1
Data set [4] deals with de novo protein synthesis in MDA-MB-231. Put plainly: EZClick in-cell-click de novo protein synthesis assay. The format is cell-based, human. The conditions noted are these: MDA-MB-231, 2 h exposure time. An excerpt:
Protein synthesis is essential in cell growth, proliferation, signaling, differentiation, and death. […] The assay includes a robust chemical method based on an alkyne containing o-propargyl-puromycin probe, which stops translation by forming covalent conjugates with nascent polypeptide chains. Truncated polypeptides are rapidly turned over by the proteasome and can be detected based on the subsequent click reaction with a fluorescent azide. To test whether these compounds (4–14) induced de novo protein synthesis inhibition, compounds were tested for a 2 h exposure time, under the same conditions as the known protein synthesis inhibitor cycloheximide (CHX) in MDA-MB-231 cell model following an in-cell-click de novo protein synthesis assay.
Biovision’s EZClick™ protein synthesis monitoring assay kit (EZClick™ Global Protein Synthesis Assay Kit, Catalog # K715-100, Milpitas, CA, USA) was used according to manufacturer’s protocol. The assay was conducted in 8-well chambered coverslips (ibidi GmbH µ-slide # 80826, Martinsried, Germany). Cells were plated at 2 × 10^4 per well and incubated at 37 °C for 12 h. Then, the cells were treated with compounds for 1.5 h and processed and stained according to protocol (representative images shown in Figure 4). Protein synthesis activity is shown in red, DNA staining is shown in green. Cycloheximide (CHX) was used as a positive control and DMSO as the negative control. Images shown were taken with a Marianas CSU-X spinning disk confocal imaging system (3i, Denver, CO, USA) configured with a Zeiss Axio Observer microscope (Carl Zeiss Inc., Thornwood, NY, USA) with diode lasers, at 63× magnification and resolution of 512 × 512 pixels (3i). For each field of view, an image stack consisting of 20 optical sections were taken at 63× magnification. The total intensity of red and green staining was quantified for the entire image stack. Six fields of view were analyzed per condition. Images shown represent a single optical section for each field of view. For each stack, the red intensity (protein synthesis) was adjusted to the green intensity (DNA content) in each image. The numbers from six images were used to calculate the average and standard deviation for each condition. Numbers were normalized to the negative control value arbitrarily set to one. The Slide viewer 6 software package was used for rendering and analysis of the images.

The test system of data set [5] is SUM149. Put plainly: Propidium iodide (PI) assay, 48 h. The note with it: SUM149, 48 h.
Procedure: (§4) The first step was to evaluate if the compounds display cytotoxicity against the adherent cells. Propidium iodide (PI) assay was performed for the drug resistant solid tumor cellular models (triple negative breast cancer models: SUM149 and MDA-MB-231) for 48 h (Figure 5) [30, 31].
The test system of data set [6] is MDA-MB-231. Put plainly: Propidium iodide (PI) assay, 48 h. The format is cell-based, human. The conditions noted are these: MDA-MB-231, 48 h.
Procedure: as §4
Data set [7] relates to KOPN-8. Put plainly: CTG viability assay (CellTiter-Glo, 72 h). The format is cell-based. The conditions noted are these: Homo sapiens, mean ± SEM of triplicates. How it is done: (§2) All human cell lines were incubated at 37 °C in a 5% CO2 atmosphere and maintained under sterile conditions. Cells were tested for Mycoplasma (Lonza, Alpharetta, GA, USA) using the manufacturer’s conditions prior to experiments. Cell lines were purchased from American Type Culture Collection (ATCC, Manassas, VA, USA) or Leibniz-Institute Deutsche Sammlung von Mikroorganismen und Zellkulturen GmbH (DSMZ, Braunschweig, Germany) and cultured without antibiotics unless stated. Leukemia cells were cultured in RPMI and supplemented with 10% fetal bovine serum (FBS, Hyclone, Logan, UT, USA). SUP-B15, and KOPN-8 lines were cultured in RPMI supplemented with 10% FBS (Hyclone), 1% GlutaMAX™, 1% Pen/Step, and 0.1% β-mercaptoethanol. BJ cells were cultured in EMEM media supplemented with 10% FBS (Hyclone). Breast cancer cells (MDA-MB-231 & SUM149) were cultured in DMEM and Ham’s F12 respectively, supplemented with 10% FBS, 1% GlutaMAX™, 1% Pen/Step, and 2 µM cortisol/1 µg/mL insulin for SUM149. Both cells were grown to 80% confluence densities as recommended by ATCC. PBMCs were supplemented with concanavalin-A (5 μg/mL) and IL-2 (50 U/ml). To test general cytotoxicity, the following cell numbers were used for 384 well plates: KOPN-8 (ACC 552, infant human B cell precursor acute lymphoblastic leukemia with MLL-MLLt1/ENL fusion, 1000 cells/well), SUP-B15 (ACC389, human B cell precursor acute lymphoblastic leukemia of pediatric second relapse carrying the ALL-variant (m-bcr) of BCR-ABL1 fusion gene (e1-a2), 1600 cells/well), NALM-06 (DSMZ ACC128, non-T/non-B ALL at relapse with P15INK4B and P16INK4A deletions, 1200 cells/well), UoC-B1 (pediatric BCP-ALL at second relapse with TCF3/E2A-HFL fusion, 1000 cells/well), BJ (CRL-2522, normal human foreskin fibroblast cells, 400 cells/well) and PBMCs (periphery blood monocyte cells from healthy donors, IBC#BDC046, 10,000 cells/well).
(§3) Cytotoxicity evaluation was performed using the CellTiter-Glo Luminescent Cell Viability Assay kit (G7570, Promega, Madison, WI, USA), according to the manufacturer’s instructions. Briefly, the cell concentrations used were experimentally determined to ensure logarithmic growth during the 72-h duration of the experiment, and avoid adverse effects on cell growth by DMSO exposure. 1 × 10^3–4.8 × 10^3 or 4 × 10^2–1.2 × 10^3 cells/well were seeded in 96 or 384-well white flat-bottomed plates (3610 or 8804BC, Corning, Corning, NY, USA) in 100 µL or 30 µL/well, respectively. The plates were incubated at 37 °C in 5% CO2 for 24 h before drugging. Test compounds (10 mM in DMSO) in nine 3-fold serial dilutions were dispensed via pintool (Biomek liquid handler, Beckman, Indianapolis, USA) to assay plates. The final concentration of DMSO was 0.3% (v/v) in each well. The positive controls included staurosporine (10 μM), and gambogic acid (10 μM). The plates were incubated for 72 h at 37 °C in 5% CO2, then quenched with CellTiter-Glo® (Promega, Madison, WI, USA, 50 µL/96 or 30 µL/384), centrifuged at 1000 rpm for 1 min and incubated at RT for 20 min. Luminescence was recorded with a plate reader (Envision, Perkin Elmer, Waltham, MA, USA). The mean luminescence of each experimental treatment group was normalized as a percentage of the mean intensity of untreated controls. EC50 values were calculated by Pipeline Pilot software (Accelrys, Enterprise Platform, San Diego, CA, USA).

In data set [8] the test system is PBMC. Put plainly: CTG viability assay (CellTiter-Glo, 72 h). The format is cell-based. The note with it: Homo sapiens, non-cancerous cells. On the procedure: as §2, §3
For data set [9], the system named is UoC-B1. Put plainly: CTG viability assay (CellTiter-Glo, 72 h). The format is cell-based. The conditions noted are these: Homo sapiens, mean ± SEM of triplicates. On the procedure:
as §2, §3

Data set [10] deals with NALM-06. Put plainly: CTG viability assay (CellTiter-Glo, 72 h). The conditions noted are these: Homo sapiens, mean ± SEM of triplicates. Format: cell-based. On the procedure:
as §2, §3

For data set [11], the system named is SUP-B15. Put plainly: CTG viability assay (CellTiter-Glo, 72 h). The format is cell-based, human. The conditions noted are these: Homo sapiens, SUP-B15, 72 h, mean ± SEM of triplicates. How it is done: as §2, §3
For orientation: ATP-based viability assays read luminescence as a measure of living cells.

The subject of data set [12] is BJ. Put plainly: CTG viability assay (CellTiter-Glo, 72 h). The format is cell-based, human. The note with it: Homo sapiens, BJ; CellTiter-Glo, 72 h; non-cancerous cells. On the procedure: as §2, §3
Data set [13] deals with MDA-MB-231. Put plainly: Co-localization of probe with organelle trackers, live cell imaging. Format: cell-based, human. The note with it: live cells, 2 µM. An excerpt: It is important to determine the intracellular accumulation of compound 9 as this may aid in identifying its intracellular interactions. To facilitate these experiments, a series of orthogonal fluorescent organelle markers were used for co-localization studies. The organelle marker set included indicators for the lysosome (Lysotracker Red), the mitochondria (MitoTracker Deep Red), and the endoplasmic reticulum (ER tracker Blue/White). Where applicable, nuclei were stained with Hoechst (Blue). All these markers were compatible with BODIPY-FL (green) to allow for flexible combinations. […] First, to evaluate the accumulation of compound 9a after 30 min treatment at 1 µM, washout experiments were conducted as shown in Figure 7A in the presence of Hoechst nuclear stain. Distinct green specks were observed near the nucleus of the cell.
Co-localization studies were conducted in 8-well chambered coverslips (ibidi GmbH µ-slide # 80826) for MDA-MB-231. Coverslips were first coated with 0.1% Gelatin for 30 min for better cell adherence. Cells were then plated in phenol red free medium at a density of 4 × 10^4 cells per well and incubated at 37 °C overnight. […]

What is called EC50 is the concentration needed to bring the measured effect to its halfway point. The low end stands for greater potency, the high end for weaker potency.

As for `COC(=O)[C@H]1[C@@H](O)[C@@]2(O)c3c(OC)cc(O[C@@H]4O[C@@H]([C@H](O)CO)CO[C@H]4OC)cc3O[C@@]2(c2ccc(OC)cc2)[C@@H]1c1ccccc1` [Silvestrol, reference compound], the IC50 values result in data set [1] was “low micromolar range”. In addition, the cell cycle effect entry in [2] and in data set [3] was “cell arrest in the G1/G0 phase” each time.

In the case of `C/C=C1\C(=O)C[C@@]2(O)[C@@H]3CCC4=CC(=O)CC[C@]4(C)[C@H]3CC[C@]12C` [Compound 14], the “de novo protein synthesis inhibition” value in data set [4] is recorded as “no protein synthesis inhibition”. Besides, the “activity in PI assay” value in [5] and in data set [6] was “weakest activity” throughout. The EC50 in data set [7] is greater than 43.3 µM; in data set [8], greater than 43.3 µM; in [9] it was greater than 21.6 µM; in data set [10], greater than 43.3 µM; in [11] it was 17.2 ± 4.5 µM; in data set [12], greater than 43.3 µM.

In the case of `COC1=CC23CCCN2CCc2cc4c(cc2C3C1OC(=O)CCC1=[N+]2C(=Cc3c(C)cc(C)n3[B-]2(F)F)C=C1)OCO4` (stereo not shown) [9a], in data set [13], the “co-localization with endoplasmic reticulum (ER-Tracker Blue/White)” value is “Co-localization of probe 9a with ER-Tracker Blue/White”.
